# Numbers after ± are expanded uncertainties.
# Assay: refractive index (Na D-line) (dimensionless)
# Settings: 101.33 kPa, Liquid, Standard Abbe refractometry
refractive index (298.15 K),refractive index (293.15 K),Compound
1.4091 ± 0.004,–,CCCCCCCCCC [decane]
–,1.4056 ± 0.004,CCCCCCCCC [nonane]
1.398 ± 0.004,–,CCCCCCCC [octane]
–,1.3852 ± 0.004,CCCO [propan-1-ol]
